According to a melting point compilation (Tetko et al.; mined from patent text by program, amines drawn as free bases though some values may be those of a salt):

Row | SMILES | melting point [°C]
1 | CCOP(=O)(OCC)C(Nc1ncc(-c2ccccc2)s1)P(=O)(OCC)OCC | 151 to 153
2 | O=C(Nc1ccc(Cl)c(Cl)c1)OC1CN2CCC1CC2 (stereo unspecified) | 181 to 184
3 | CCCCn1c(=O)c2c(NC)n[nH]c2n(Cc2ccccc2[N+](=O)[O-])c1=O | > 300
4 | CN1C(=O)CN=C(c2ccc(O)cc2)c2cc(Cl)ccc21 | 225 to 259
5 | Cc1ccc(-c2cc(C(F)(F)F)n3ncc(-c4ccncc4)c3n2)cc1C(F)(F)F | 218
6 | N#Cc1ncn2c1[C@@H]1CCCN1C(=O)c1c(Cl)cccc1-2 | 237 to 238
7 | CCOCc1nc2c(N)nc3cc(OCc4nccn4C)ccc3c2n1CC(C)(C)O | 200 to 202
8 | COc1cc(C(=O)Nc2c(Cl)cc3c(Br)n[nH]c3c2C(=O)NC(C)C)n(-c2ncccc2Cl)n1 | 217 to 218
9 | CC(O)c1nccc(=O)[nH]1 (stereo unspecified) | 121 to 124
10 | CN1CCN(Cc2ccccc2-c2cc3c(Nc4ccc5[nH]ccc5c4)c(C#N)cnc3s2)CC1 | 226 to 228
11 | Cc1oc(C(C)(C)C)nc1CCl | 41 to 44
12 | CCOC(=O)Nc1nc(-c2ccccc2)c(-c2nc3ccccc3c(=O)n2-c2cccc(Cl)c2)s1 | 235 to 236
13 | N#Cc1ccccc1C1=CC2CC(=O)CC2C1 (stereo unspecified) | 36 to 37
14 | N#CCCn1c(=O)n(C2CCN(CCNC(=O)c3ccc(F)cc3)CC2)c2ccccc21 | 172
15 | COc1ccc(Oc2ccc3c(c2)C=C(C(=O)O)C(C(F)(F)F)O3)cc1 (stereo unspecified) | 182 to 183
16 | COc1ccc(CC(=O)Nc2c(C)c(C)c3oc(C)c(-c4ccc(C(C)C)cc4)c3c2C)cc1 | 202 to 204
17 | COCCO[C@@H]1c2ccn3c(-c4ccccc4)c(C)nc3c2N[C@H](c2ccccc2)[C@H]1O | 190 to 192
18 | N#Cc1cnc2c(sc3c([N+](=O)[O-])cccc32)c1Nc1cccc(Br)c1 | 288 to 290
19 | Cc1nc(CN(C)C)n2c1CN=C(c1ccccc1Cl)c1cc(Cl)ccc1-2 | 185 to 186

More lines, now with the values ahead:

Row | melting point [°C] | SMILES
20 | 79 | O=C(O)CCc1cc2cc(Cl)ccc2n1S(=O)(=O)c1ccc2[nH]ccc2c1
21 | 76.6 to 76.8 | CCOC(=O)/C=C/c1ccc(OCCOCCOC)cc1Oc1ncc(C(F)(F)F)cc1Cl
22 | 145 to 146 | CC(=O)OCC1OC(n2c(Cl)nc3cc(Cl)c(Cl)cc32)C(OC(C)=O)C1OC(C)=O (stereo unspecified)
23 | 210 | Cc1ccc2c(c1)C=Cc1cc(C)ccc1C2c1cn(-c2ccnc(N(C)CC(=O)Nc3nc(CC(=O)O)cs3)n2)c(=O)[nH]c1=O
24 | 175 to 190 | CCCCc1oc2ccccc2c1C(=O)NCc1ccc(-c2ccc(OCC(=O)O)c(Br)c2)cc1
25 | 239 to 243 | CCCCc1c2c(nn1-c1ccccc1)c(Cl)nc1ccccc12
26 | 135 | O=C(NCc1ccccc1-c1ccccc1C(=O)NCCc1ccccn1)c1ccccc1
27 | 89 to 90 | CCN(CC)c1ccc(/C=C(\C)c2ccc3c(c2)C(C)(C)CCC3(C)C)cc1
28 | 207 to 209 | COc1ccc(CN(Cc2ccc(OC)cc2)c2nc(-c3ccccc3)c(-c3ccc(=O)n(C(C)C)n3)nc2C#N)cc1
29 | 311 to 313 | O=C1NC(=O)c2c1c(-c1ccccc1Cl)cc1sc3ccc(O)cc3c21
30 | 188 to 196 | COC(=O)c1cc2cc3c(cc2[nH]1)OCC(=O)N3
31 | 217 to 219 | CC(=O)NCCCCn1cnc2c(N)nc(C)c(C)c21
32 | 162 | CCCCc1nn2c(c1Cc1ccc(-c3ccccc3)c(C(=O)O)c1)CCCC2
33 | 151 to 153 | COc1cccc2sc(C(N)=O)c(N)c12
34 | 94 to 95 | CCCCCS(=O)(=O)NC(=O)CCc1ccc(OC(C)C)cc1Oc1ncc(C(F)(F)F)cc1Cl
35 | 148 to 149 | NCc1cccc(-n2cnc3cnc4ccc(Cl)cc4c32)c1
36 | 111 | CC(C)(C(=O)c1ccc(Cl)cc1)n1cncn1
